Assay results from article PMC5335257, “Promoting in vivo remyelination with small molecules: a neuroreparative pharmacological treatment for Multiple Sclerosis” (Scientific Reports, 2017).

How the values were obtained:
[1] = system: OPCs isolated from P0 mice; assay: Differentiation assay, murine OPCs; format: cell-based, mouse; details: murine P0 OPCs, 1 μM, 5, 7 and 10 DIV
Description: (§1) We isolated OPCs, as previously described. Briefly, a stock papain solution was prepared containing ([…]; Worthington Biochemical), L-cysteine (0.2 mg/ml; Sigma), and EDTA (0.2 mg/ml; Sigma) in Hank’s Balanced Salt Solution (HBSS; Invitrogen) without Ca^2+ and Mg[2]. Then, the cerebral cortices of P0 CD1 mice were dissected out and placed for 5 minutes at 37 °C in a medium containing the stock papain solution in HBSS with Ca^2+ and Mg^2+ (1:10; Invitrogen) in order to easily remove the meninges. Once meninges and choroid plexus were removed, the tissue was enzymatically dissociated for 5 minutes at 37 °C again by using the papain solution (1:10 in HBSS without Ca^2+ and Mg^2+) and the digested tissue was then filtered through a 100 μm nylon mesh strainer (BD Biosciences) and seeded on poly-L-ornithine-coated (Sigma) 75 cm^2 flasks in DMEM medium (Invitrogen) containing 10% foetal bovine serum (FBS; BioWhittaker) and 100 U/mL penicillin, 0.1 mg/mL streptomycin and 0.25 μg/ml Amphotericin B antibiotic antimycotic solution (Sigma). Cultures were maintained at 37 °C and 5% CO2, and the medium was changed every 3 days. When the cultures reached confluence, they were shaken overnight at 250 rpm and at 37 °C in order to detach the OPCs located on the top of the confluent astrocyte monolayer and the medium was then filtered through a 40μm nylon mesh strainer (BDBiosciences) and centrifuged at 900 rpm. Cells were seeded twice (45 minutes each) in bacterial grade Petri dishes (Sterilin) to remove microglial cells. The resulting enriched oligodendrocyte progenitor cell suspension was counted and seeded.
(§2) Purified OPCs were placed on coverslips coated with poly-L-lysine and laminin in 24-well tissue culture dishes at a density of 2 × 10^4 cells/well. To promote differentiation, the cells were maintained in the differentiation medium (described above) and PDE7-GSK3 or GSK3 inhibitors (VP3.15 or TDZD8; 1 μM) were added to the culture medium. Different controls were used for the dual or single inhibitors due to the active substance being dissolved in differing amounts of DMSO. After 5, 7 and 10 DIV the cells were fixed with 4% PFA for further immunocytochemical analysis. Anti-CNPase antibodies (1:200;Covance; Cat#SMI-91R), anti-MBP antibodies (1:200; Serotec; Cat#MCA4095) for detecting oligodendrocytes and anti-Olig2 antibodies (1:250; Millipore; Cat#AB9610) as a marker for all oligodendroglial stages were used. Ten random fluorescence digital images were taken in each coverslip with a DFC480 FX digital camera (Leica) coupled to a Leica DM5000 B microscope for quantification. Data were expressed as a mean ratio of differentiated oligodendrocytes (CNPase^+-Olig2^+ double positive cells) with respect to total Olig2^+ cells ± SEM or percentage of CNPase^+ cells respect to control ± SEM, in at least three independent experiments, except with human samples (two independent experiments).

[2] = system: adult human OPCs; assay: Differentiation assay, adult human OPCs; format: cell-based; details: adult human OPCs, 1 μM, 5 DIV
Description: Human brain samples were obtained from adult patients of temporal lobe epilepsy resistant to pharmacological treatment or traumatic brain injury; they underwent surgical treatment by the Neurosurgery Service at the Hospital Universitario de La Princesa (Madrid, Spain) and Hospital 12 de Octubre (Madrid, Spain). All tissue samples were obtained under protocols approved by the Research Ethics Committee of Toledo (Spain) review boards. All were conducted in accordance with the Helsinki Declaration and were approved by the Research Ethics Committee of Toledo (Spain). All patients provided informed consent prepared under the guidelines of the Research Ethics Committee at their respective hospital in Madrid (Spain).
For cells obtained from human biopsies, the same protocol was used except that papain solution was used 1:2.5 in HBSS for 10 minutes for meningeal disintegration and 1:10 in HBSS for 15 minutes for the tissue digestion, 25 cm[2] flasks were used, the medium was supplemented with 10 ng/ml of human PDGF-AA (Millipore) for 2 weeks and then incubated for 2 more weeks without growth factors before shaking and the shaking was carried out at 230 rpm instead of 250 rpm.
as §2

[3] = system: OPCs from P0 mice; assay: Survival assay (Casp3+-A2B5+ cells); format: cell-based, mouse; details: murine P0 OPCs, 1 μM, 2 DIV
Description: as §1, with “When the cultures reached confluence, they were shaken overnight at 250 rpm and at 37 °C in order to detach the OPCs located on the top of the confluent astrocyte monolayer and the medium was then filtered through a 40μm nylon mesh strainer (BDBiosciences) and centrifuged at 900 rpm. Cells were seeded twice (45 minutes each) in bacterial grade Petri dishes (Sterilin) to remove microglial cells.” left out, “seeded. […]” for “seeded.”

[4] = system: OPCs from P0 mice; assay: Proliferation assay (BrdU incorporation); format: cell-based, mouse; details: murine P0 OPCs, 1 μM, 72 h
Description: We isolated OPCs, as previously described. Briefly, a stock papain solution was prepared containing ([…]; Worthington Biochemical), L-cysteine (0.2 mg/ml; Sigma), and EDTA (0.2 mg/ml; Sigma) in Hank’s Balanced Salt Solution (HBSS; Invitrogen) without Ca^2+ and Mg[2]. Then, the cerebral cortices of P0 CD1 mice were dissected out and placed for 5 minutes at 37 °C in a medium containing the stock papain solution in HBSS with Ca^2+ and Mg^2+ (1:10; Invitrogen) in order to easily remove the meninges. […] The resulting enriched oligodendrocyte progenitor cell suspension was counted and seeded.
OPCs were placed on coverslips coated with poly-L-lysine (Sigma) and laminin (Sigma; 2 × 10^4 cells/well) and they were incubated with the inhibitors (VP3.15 or TDZD8; 1 μM) in the serum free medium described above. After 42 h in culture, BrdU (50 μM; Sigma) was added for 6 h and after a total of 72 h in culture, the cells were fixed and BrdU incorporation was detected by immunocytochemistry (1:20; G3G4, HybridomaBank) combined with the detection of the oligodendroglial marker Olig2 (1:250; Millipore; Cat#AB9610). […]

[5] = system: cerebellar slices demyelinated with LPC; assay: Ex vivo remyelination in cerebellar slice cultures demyelinated with LPC; format: cell-based, CD1 P7 mice; details: 5 μM, 3 days post lesion (3DPL)
Description: The protocol used was modified from previously described. CD1 P7 mice were decapitated, and their cerebella were dissected into ice-cold HBSS (Invitrogen). 300 μm sagittal slices of cerebellum were cut using a McIllwain tissue chopper, placed on Millicell-CM organotypic culture inserts (3 slices per insert; Millipore) in a medium containing HBSS:BME: horse serum (1:2:1, Invitrogen), 28 mM D (+) - glucose (Normapur), […] L-Glutamine (Invitrogen) and 100 U/mL penicillin, 0.1 mg/mL streptomycin and 0.25 μg/ml Amphotericin B antibiotic anti-mycotic solution (Sigma) and maintained at 5% CO2 and 37 °C. Medium was changed every two days, and after 7 days in culture, demyelination was induced by addition of 0.5 mg/ml LPC (Sigma) to the medium for 15 h. After that, slices were treated with fresh medium containing PDE7-GSK3 or GSK3 inhibitors (VP1.15, VP3.15 or TDZD8; 5 μM). Cultures were maintained for 1 or 3 days post lesion (DPL), and then fixed for 40 minutes and immunostained with anti-MBP antibodies (myelin basic protein –as a marker of myelin; 1:200; Serotec; Cat#MCA4095) and anti-neurofilament antibody (as a marker of axons; 1:200; Abcam; Cat#ab8135). Fluorescence images were taken on a confocal SP5 resonant scanner (Leica Microsystems) at 1μm intervals in white matter areas at x40 magnification. The photographs were merged and co-localisation of both markers was quantified with Image J software using the colocalization highlighter plugin. This measurement was related to the area occupied by axons (neurofilament staining) and normalized with control values showing the data as the mean normalized myelination index ± SEM. Quantification was made in at least three independent experiments.

[6] = system: PDE7; set-up: method as in PMID 24437940; details: cited from earlier work
[7] = system: GSK-3; set-up: method as in PMID 24437940; details: read-out: GSK-3 inhibition IC50; cited from earlier work

For Cn1sc(=O)n(Cc2ccccc2)c1=O [TDZD8, reference compound], the “number of mature oligodendrocytes (CNPase+-Olig2+ cells) vs control” value [1] was “no effect”, the “number of CNPase+-Olig2+ cells vs control (differentiation)” value [2] was “did not show any effect” and the “OPC survival (Casp3+-A2B5+ apoptotic cells)” value [3] was “increased OPC survival”. For the same molecule, the “OPC proliferation (BrdU+-Olig2+ cells)” value [4] was “no changes”, the “remyelination (normalized myelination index)” value [5] was “no effect” and the PDE7 inhibition [6] was “does not inhibit PDE7”. For the same molecule, the IC50 ([6]; read-out: PDE7 inhibition IC50) was > 100000 nM and the IC50 [7] was 690 nM.
